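Results reflect a 48-hour exposure of cells in 96-well plates to compound at five concentrations. TGI denotes the concentration required for complete inhibition of growth.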
Columns and labels:
Test in all cases: DTP human tumour cell line panel, 48 h
[1] = tested on: SK-OV-3 ovarian
[2] = tested on: HCT-15 colon
[3] = tested on: ACHN renal
[4] = tested on: RXF-631 renal
[5] = tested on: M19-MEL melanoma
[6] = tested on: SK-MEL-28 melanoma
[7] = tested on: HCC-2998 colon
[8] = tested on: UO-31 renal
[9] = tested on: A498 renal
[10] = tested on: HCT-116 colon
[11] = tested on: EKVX NSCLC
[12] = tested on: HOP-62 NSCLC
[13] = tested on: NCI-H522 lung
[14] = tested on: M14 melanoma
[15] = tested on: LOX IMVI melanoma
[16] = tested on: DLD-1 colon
[17] = tested on: SN12C renal
[18] = tested on: RPMI-8226 leukemia
[19] = tested on: MOLT-4 leukemia
[20] = tested on: OVCAR-5 ovarian
[21] = tested on: SK-MEL-2 melanoma
[22] = tested on: SK-MEL-5 melanoma
[23] = tested on: COLO 205 colon
[24] = tested on: HOP-92 NSCLC
[25] = tested on: OVCAR-3 ovarian
[26] = tested on: UACC-257 melanoma
[27] = tested on: LXFL 529 NSCLC
[28] = tested on: SNB-78 CNS
[29] = tested on: MALME-3M melanoma
[30] = tested on: NCI-H23 lung
[31] = tested on: SNB-75 CNS
[32] = tested on: CAKI-1 renal
[33] = tested on: SF-268 CNS
[34] = tested on: U251 CNS
[35] = tested on: HL-60(TB) leukemia
[36] = tested on: KM12 colon
[37] = tested on: SW-620 colon
[38] = tested on: A549 NSCLC
[39] = tested on: DMS 114 small cell lung
[40] = tested on: DMS 273 small cell lung
[41] = tested on: OVCAR-8 ovarian
[42] = tested on: SNB-19 CNS
[43] = tested on: SF-539 CNS
[44] = tested on: NCI-H460 lung
[45] = tested on: HOP-18 NSCLC
[46] = tested on: TK-10 renal
[47] = tested on: NCI-H226 lung
[48] = tested on: K-562 leukemia
[49] = tested on: SF-295 CNS
[50] = tested on: HT29 colon
[51] = tested on: IGROV1 ovarian
[52] = tested on: 786-0 renal
[53] = tested on: OVCAR-4 ovarian
[54] = tested on: KM20L2 colon
[55] = tested on: UACC-62 melanoma
[56] = tested on: RXF 393 renal
[57] = tested on: SR leukemia
[58] = tested on: CCRF-CEM leukemia
[59] = tested on: XF 498 CNS

Measured: TGI

Cc1cccc(C(C)(C)C)c1NC(=O)C(=O)Cc1nc2ccccc2s1
not listed: [56] | [57] | [58] | [59]
> 100 µM: all other assays above

CC(C)(C)C1=NC(S)NC(CCC(=O)Nc2ccccc2[N+](=O)[O-])=C1 (configuration not stated)
not listed: [9] | [13] | [18] | [31] | [40] | [59]
> 100 µM: all other assays above

C1CN2N3CCCC23C1 (configuration not stated)
not listed: [4] | [24]
> 100 µM: all other assays above

Cc1cccc2c3ccc4c(c3n(C)c12)C(=O)C=CC4=O
61.2 µM: [58]
57.8 µM: [30]
41.9 µM: [35]
not listed: [2] | [3] | [9] | [15] | [20] | [22] | [34] | [44] | [45] | [54] | [56] | [59]
> 100 µM: all other assays above
